According to patent publication US8642647B2, “N1-benzo[1,3]dioxol-5-ylmethyl-N2-substituted biguanide derivative, preparation method thereof, and pharmaceutical composition containing same” (Hanall Biopharma Co., Ltd., priority 2008, dated 2014):

Experiments:
Format in all cases: cell-based
HepG2 cells [1] = experiment: Measurement of cholesterol synthesis inhibitory ability; conditions: 24 hours, HepG2 cells, content of cholesterol formed, lower value = stronger inhibition; for Cholesterol (100 μM) aver.: 100 μM compound; for Cholesterol (500 μM) aver.: 500 μM compound
Experimental: (§1) 2 mM metformin was used as a comparative compound for each of the plates (control group).
A cholesterol synthesis inhibitory ability, which is an important function of AMPK (AMP-activated protein kinase), was measured using HepG2 cells (ATCC: American Type Culture Collection) as a hepatic cell model according to the following procedure.
The hepatic cell model HepG2 cells were cultured in 1% serum-containing media (DMEM (Gibco), FBS (Gibco)) for 24 hours, and then treated with 100 μM or 500 μM of each of the compounds prepared in Examples for 24 hours. Then, the cells were disrupted with a lysis solution (0.1 M potassium phosphate, pH 7.4, 0.05 M NaCl, 5 mM cholic acid, 0.1% Triton X-100 (Sigma)). To the disrupted cells was added the same volume of a reaction solution (2 U/ml of a cholesterol oxidizing agent, 2 U/ml of a peroxidase, 0.2 U/ml of a cholesterol esterase, and 300 μM of Amplex red as a fluorescent factor (Molecular Probe)), which was allowed to react at 37° C. for 30 minutes. After completion of the reaction, the content of cholesterol formed in the cell lysates was measured at a wavelength of 560/590 nm (ex/em) using a fluorescence microscope.
A lower measurement value means an increased cholesterol synthesis inhibitory ability.

HepG2 cells [2] = experiment: Measurement of triglyceride synthesis inhibitory ability; conditions: for Triglyceride (100 μM) aver.: 100 μM compound; for Triglyceride (100 μM) aver. / Triglyceride (500 μM) aver.: 24 hours, HepG2 cells, content of triglyceride formed, lower value = stronger inhibition; for Triglyceride (500 μM) aver.: 500 μM compound
Experimental: as §1
HepG2 cells (ATCC: American Type Culture Collection) were cultured in 1% serum-containing media (DMEM (Gibco), FBS (Gibco)) for 24 hours, and then treated with 100 μM or 500 μM of each of the compounds prepared in Examples for 24 hours. Then, the cells were disrupted with a lysis solution (0.1 M potassium phosphate, pH 7.4, 0.05 M NaCl, 5 mM cholic acid, 0.1% Triton X-100). To the disrupted cells was added the same volume of a reaction solution (0.76 U/ml of a glycerol kinase (Asan Pharmaceutical Co., Ltd.), […] of a peroxidase (Asan Pharmaceutical Co., Ltd.), 22.2 U/ml of a glycerol oxidizing agent (Asan Pharmaceutical Co., Ltd.), and 300 μM of Amplex red as a fluorescent factor (Molecular Probe)), which was allowed to react at 37° C. for 30 minutes. After completion of the reaction, the content of triglyceride formed in the cell lysates was measured at a wavelength of 560/590 nm (ex/em) using a fluorescence microscope.
A lower measurement value means an increased triglyceride synthesis inhibitory ability.

HepG2 cells [3] = experiment: Measurement of gluconeogenesis inhibitory ability; conditions: Homo sapiens, HepG2, 24 h, 100 μM compound, 24 hours, HepG2 cells; content of glucose formed from 14C-lactate; lower value = stronger inhibition; read-out: Gluconeogenesis inhibition (100 μM) aver.
Experimental: as §1
HepG2 cells (ATCC: American Type Culture Collection) were cultured in 10% serum-containing high glucose media, transferred to no serum-containing low glucose media (DMEM (Gibco), FBS (Gibco)), and then treated with 100 μM of each of the compounds for 24 hours. Then, the cells were treated with 0.5 μCi ^14C-lactate (Amersham Pharmacia) and 10 mM L-lactate (Sigma), and cultured for 4 hours. After cultivation, the media were removed therefrom, and the cells were washed with PBS, treated with 0.1N NaOH and kept at room temperature for 1 hour. Then, the cells were neutralized with 1N HCl, and the content of glucose formed in the cells was measured with a liquid scintillation counter.
A lower measurement value means an increased gluconeogenesis inhibitory ability.

C2C12 cells = experiment: Measurement of glucose absorption ability; conditions: 100 μM compound versus 2 mM metformin
Experimental: as §1
C2C12 cells (ATCC: American Type Culture Collection), a muscle cell model, were induced to differentiate into muscle cells in 2% bovine fetal serum-containing media (DMEM (Gibco), FBS (Gibco)) for 6 days. The C2C12 cells which differentiated into muscle cells were transferred to serum-free low glucose media (DMEM (Gibco), FBS (Gibco)), treated with 100 μM of each of the compounds, and then cultured with 1 μM of insulin for 24 hours. After cultivation, the cells were treated with 1 μCi ^3H-deoxy-glucose (Amersham Pharmacia) and 10 μM deoxy-glucose (Sigma) at 37° C. for 15 minutes. The media were removed therefrom, and the cells were washed twice with PBS (phosphate buffered saline). The washed cells were treated with 0.1N NaOH and neutralized with 1N HCl. The content of glucose absorbed into the cells was measured with a liquid scintillation counter.
A higher measurement value means a stronger ability to reduce insulin resistance.

SMILES | Cholesterol (100 μM) aver. (HepG2 cells [1]) | Cholesterol (500 μM) aver. (HepG2 cells [1]) | Triglyceride (100 μM) aver. (HepG2 cells [2]) | Triglyceride (500 μM) aver. (HepG2 cells [2]) | activity at 100 µM (HepG2 cells [3]) | glucose absorption effect better than that of the control group (C2C12 cells) | effect in inhibiting triglyceride synthesis better than that of the control group (HepG2 cells [2]; 100 μM compound versus 2 mM metformin)
Cl.N=C(N)NC(=NCc1ccccc1)NCc1ccc2c(c1)OCO2 [Example 5, N1-benzo[1,3]dioxol-5-ylmethyl-N2-benzyl biguanide hydrochloride] | 30.3 | −8.28 | 102.8 | 15.7 | 108% | about 220 times | –
Cl.N=C(N)NC(=Nc1ccc(Oc2ccccc2)cc1)NCc1ccc2c(c1)OCO2 [Example 30, N1-benzo[1,3]dioxol-5-ylmethyl-N2-(4-phenoxyphenyl)biguanide hydrochloride] | 21.94 | 40.34 | 18.22 | 3.05 | 3.04% | – | –
COCCN=C(NCc1ccc2c(c1)OCO2)NC(=N)N.Cl [Example 31, N1-benzo[1,3]dioxol-5-ylmethyl-N2-(2-methoxyethyl)biguanide hydrochloride] | 84.45 | 69.16 | 74.51 | 73.00 | 100% | – | –
Cl.N=C(N)NC(=Nc1ccc(Br)cc1)NCc1ccc2c(c1)OCO2 [Example 32, N1-benzo[1,3]dioxol-5-ylmethyl-N2-(4-bromophenyl)biguanide hydrochloride] | 11.62 | 20.56 | 35.08 | 17.38 | 4.42% | – | –
CC(C)(C)c1ccc(N=C(NCc2ccc3c(c2)OCO3)NC(=N)N)cc1.Cl [Example 33, N1-benzo[1,3]dioxol-5-ylmethyl-N2-(4-t-butylphenyl)biguanide hydrochloride] | 20.42 | 30.52 | 27.40 | 7.08 | 2.35% | – | –
Cl.N=C(N)NC(=Nc1cc(Cl)cc(Cl)c1)NCc1ccc2c(c1)OCO2 [Example 34, N1-benzo[1,3]dioxol-5-ylmethyl-N2-(3,5-dichlorophenyl)biguanide hydrochloride] | 15.56 | 39.12 | 21.41 | 8.80 | 2.37% | – | –
Cl.N=C(N)NC(=NCc1ccc(Br)cc1)NCc1ccc2c(c1)OCO2 [Example 36, N1-benzo[1,3]dioxol-5-ylmethyl-N2-(4-bromobenzyl)biguanide hydrochloride] | 25.31 | 40.17 | 61.93 | 24.04 | 92.9% | – | –
COc1ccc(CN=C(NCc2ccc3c(c2)OCO3)NC(=N)N)cc1.Cl [Example 37, N1-benzo[1,3]dioxol-5-ylmethyl-N2-(4-methoxybenzyl)biguanide hydrochloride] | 60.36 | 32.20 | 62.82 | 58.60 | 104% | – | at least 20 times
Cl.N=C(N)NC(=NC1CC1)NCc1ccc2c(c1)OCO2 [Example 38, N1-benzo[1,3]dioxol-5-ylmethyl-N2-cyclopropyl biguanide hydrochloride] | 57.32 | 47.06 | 95.00 | 61.43 | 78.9% | – | –
CCCCN=C(NCc1ccc2c(c1)OCO2)NC(=N)N.Cl [Example 39, N1-benzo[1,3]dioxol-5-ylmethyl-N2-butyl biguanide hydrochloride] | 70.48 | 49.52 | 98.77 | 64.23 | 87.3% | – | –
CCCCCN=C(NCc1ccc2c(c1)OCO2)NC(=N)N.Cl [Example 40, N1-benzo[1,3]dioxol-5-ylmethyl-N2-pentyl biguanide hydrochloride] | 57.36 | 27.89 | 101.4 | 50.00 | 84.6% | – | –
Cl.N=C(N)NC(=Nc1cccc(Br)c1)NCc1ccc2c(c1)OCO2 [Example 41, N1-benzo[1,3]dioxol-5-ylmethyl-N2-(3-bromophenyl)biguanide hydrochloride] | 23.61 | 32.23 | 25.51 | 19.79 | 0% | – | –
Cc1cccc(N=C(NCc2ccc3c(c2)OCO3)NC(=N)N)c1.Cl [Example 42, N1-benzo[1,3]dioxol-5-ylmethyl-N2-(3-methylphenyl)biguanide hydrochloride] | 46.42 | 28.95 | 75.45 | 36.78 | 56.1% | – | –
Cl.N=C(N)NC(=NCc1ccc(F)cc1)NCc1ccc2c(c1)OCO2 [Example 43, N1-benzo[1,3]dioxol-5-ylmethyl-N2-(4-fluorobenzyl)biguanide hydrochloride] | 73.10 | 47.65 | 82.02 | 63.67 | 83.5% | – | –
Cl.N=C(N)NC(=NCc1ccc(F)c(F)c1)NCc1ccc2c(c1)OCO2 [Example 44, N1-benzo[1,3]dioxol-5-ylmethyl-N2-(3,4-difluorobenzyl)biguanide hydrochloride] | 74.32 | 49.84 | 78.42 | 56.79 | 103% | – | –
Cl.N=C(N)NC(=Nc1ccccc1)NCc1ccc2c(c1)OCO2 [Example 45, N1-benzo[1,3]dioxol-5-ylmethyl-N2-phenyl biguanide hydrochloride] | 77.21 | 23.24 | 96.12 | 35.45 | 117% | – | –
COCCOCCOCCN=C(NCc1ccc2c(c1)OCO2)NC(=N)N.Cl [Example 46, N1-benzo[1,3]dioxol-5-ylmethyl-N2-(2-(2-(2-methoxyethoxy)ethoxy)ethyl)biguanide hydrochloride] | 90.31 | 91.68 | 89.69 | 93.41 | 101% | – | –
